Patent publication US20030073705A1, “Method of treatment” (priority 2001, published 2003)

Key:
[1] = test system: patients with Type 2 diabetes and nephropathy; test: Triple-blind, randomized, placebo-controlled study: primary composite endpoint (doubling of serum creatinine, end stage renal disease or death) and components; type: in vivo, human
Experimental: (§1) The study involved male and female patients ranging in age from 31 to 70 years diagnosed with Type 2 diabetes and nephropathy; the latter defined as two urine albumin:creatinine ratios from a first morning specimen >300 mg/g (34 mg/mmol) (or a 24-hr urine protein >=500 mg (0.5 g/day)) and two serum creatinine values between 1.3 and 3.0 mg/dL (115 and 265 μmol/L) (lower limit of 1.5 mg/dL (133 μmol/L)for males >60 kg). […] Journal of the Renin Angiotensin Aldosterone System 2000;1(4):328-35. Patients were excluded from the study if diagnosed with Type 1 diabetes or nondiabetic renal disease, including renal artery stenosis. Patients with a history of heart failure, myocardial infarction or coronary artery bypass grafting within 1 month, cerebral vascular accident or percutaneous transluminal coronary angioplasty within 6 months or transient ischemic attacks within 1 year prior to enrollment were excluded.
(§2) During the 6-week screening phase, hypertensive patients continued to take their standard antihypertensive therapy. However, in those patients taking angiotensin I converting enzyme inhibitors or angiotensin II receptor antagonists, these agents were discontinued at the beginning of the screening phase and replaced by alternative open-label therapy at the investigator's discretion (diuretic, calcium-channel antagonist, α- or β-blocker, and/or centrally acting agent). […] After an additional 8 weeks, further antihypertensive therapy with agents described above (exclusive of angiotensin I converting enzyme inhibitors or angiotensin II receptor antagonists), were added or increased in dosage to achieve the goal trough sitting blood pressure.
(§3) Throughout the study, patients received standard medical care for treatment of diabetes, including routine measurements of HbAlc and fasting serum glucose concentrations. Study visits were scheduled every 3 months or more frequently if necessary for monitoring trough sitting blood pressure control, changes in laboratory measurements, adverse experiences and endpoints. Patients who discontinued early from blinded study therapy were followed every 3 months until study end for primary and secondary endpoints, blood pressure control and laboratory measurements. Those who could not return for clinic visits were contacted by telephone for endpoints of dialysis, renal transplantation or death.
(§4) The primary efficacy parameter was a composite endpoint of time to the first event of doubling of serum creatinine concentration, end stage renal disease, or death. End stage renal disease was defined as the need for chronic dialysis or renal transplantation. The prespecified secondary endpoint, cardiovascular morbidity and mortality, was a composite of myocardial infarction, stroke, hospitalization for heart failure or unstable angina, coronary or peripheral revascularization, and death from cardiovascular-related causes. Analyses of the components of both the primary and secondary composite endpoints also were prespecified. Other secondary endpoints included progression of renal disease as assessed by the slope of the reciprocal of serum creatinine concentration and changes in proteinuria. (See Mitch W E, Walser M, Buffington G A, Lemann J Jr. A simple method of estimating progression of chronic renal failure. Lancet 1976;2:1326-8.) An independent, blinded endpoint committee adjudicated all potential clinical endpoints occurring from the time of randomization until study termination.
(§5) A supportive, per-protocol analysis excluded patients who violated the inclusion/exclusion criteria, and censored patients 14 days after permanent discontinuation of study medication.

[2] = test system: patients with Type 2 diabetes and nephropathy; test: Trough sitting blood pressure during the study; type: in vivo, human
Experimental: The results reported here represent a mean follow-up time of 3.4 years.
as §1, §2
as §3, with “death. […]” for “death.”

[3] = test system: patients with Type 2 diabetes and nephropathy; test: Secondary endpoint: cardiovascular morbidity and mortality and components; type: in vivo, human
Experimental: as §1, §2, §4, §5

[4] = test system: patients with Type 2 diabetes and nephropathy; test: Secondary endpoints: proteinuria and progression of renal disease (slope of reciprocal of serum creatinine); type: in vivo, human; conditions: on-treatment; p=0.01 versus placebo
Experimental: as §1
During the 6-week screening phase, hypertensive patients continued to take their standard antihypertensive therapy. […]
The primary efficacy parameter was a composite endpoint of time to the first event of doubling of serum creatinine concentration, end stage renal disease, or death. […] Other secondary endpoints included progression of renal disease as assessed by the slope of the reciprocal of serum creatinine concentration and changes in proteinuria. […]

[5] = test system: patients with Type 2 diabetes and nephropathy; test: Discontinuation from study therapy and adverse experiences; conditions: n = 751
Experimental: as §1, §2, §3

[6] = intention-to-treat, n = 751, mean follow-up 3.4 years
[7] = losartan relative to placebo, p=0.010

With “2-N-butyl-4-chloro-5-hydroxymethyl-1-[(2′-(1H-tetrazol-5-yl)biphenyl-4-yl)-methyl]imidazole, potassium salt [Losartan]” the “Patients reaching primary composite endpoint (number)” value ([1]; intention-to-treat analysis) was 327 patients, the “Patients reaching primary composite endpoint (percent)” value ([1]; intention-to-treat analysis) was 43.5% and the “Primary composite endpoint, event rate” value ([1]; intention-to-treat analysis) was 15.9 /100 patient years of follow-up. The “Doubling of sCr, ESRD or Death (composite primary endpoint), patients” value ([1]; intention-to-treat, losartan 50 to 100 mg once daily +CT, n = 751, mean follow-up 3.4 years) was 327 (43.5) n (%), the “Death, patients” value [1, 6] was 158 (21.0) n (%) and the “Doubling of sCr or ESRD, patients” value [1, 6] was 226 (30.1) n (%). For the same substance, the “Doubling of sCr, patients” value [1, 6] was 162 (21.6) n (%), the “ESRD or Death, patients” value [1, 6] was 255 (34.0) n (%) and the “ESRD, patients” value [1, 6] was 147 (19.6) n (%). For the same substance, the “Risk Reduction, Doubling of sCr, ESRD or Death (composite primary endpoint)” value ([1]; losartan relative to placebo, intention-to-treat, Cox model, p=0.024) was 16%, the “Risk Reduction, ESRD” value ([1]; losartan relative to placebo, p=0.002) was 28% and the “Risk Reduction, Doubling of sCr” value ([1]; losartan relative to placebo, p=0.006) was 25%. For the same substance, the “Risk Reduction, Doubling of sCr or ESRD” value [1, 7] was 21%, the “Risk Reduction, ESRD or Death” value [1, 7] was 20% and the “Risk Reduction, Death” value ([1]; losartan relative to placebo, p=0.882) was −2%. For the same substance, the “Decrease in risk of primary composite endpoint after correcting for blood pressure” value ([1]; mean arterial pressure as time-varying covariate, p=0.034) was 15%, the “Risk reduction in primary composite endpoint, per protocol analysis” value ([1]; patients who remained on treatment throughout the protocol, p=0.008) was 22% and the “Effect in pre-defined subgroups (primary composite, ESRD, ESRD or death)” value ([1]; patients with baseline serum creatinine greater than 2.0 mg/dL and urine albumin:creatinine ratio greater than 2000 mg/g) was “particularly beneficial”. For the same substance, the “Trough diastolic blood pressure” value ([2]; at 1 year, average) was 78 mmHg, the “Trough systolic blood pressure” value ([2]; at 1 year, average) was 146 mmHg and the Mean arterial pressure ([2]; at 1 year, p<0.001 versus placebo) was 100.9 mmHg. For the same substance, the Pulse pressure ([2]; at 1 year, p=0.047 versus placebo) was 67.8 mmHg, the “Trough diastolic blood pressure” value ([2]; at study end, average) was 74 mmHg and the “Trough systolic blood pressure” value ([2]; at study end, average) was 140 mmHg. The Mean arterial pressure ([2]; at study end, p=0.59 versus placebo) was 95.9 mmHg, the Pulse pressure ([2]; at study end, p=0.77 versus placebo) was 66.7 mmHg and the “Trough diastolic blood pressure” value ([2]; at year 2, average) was 77 mmHg. The “Trough systolic blood pressure” value ([2]; at year 2, average) was 143 mmHg, the Pulse pressure ([2]; at year 2, p=0.37 versus placebo) was 66.2 mmHg and the Mean arterial pressure ([2]; at year 2, p=0.38 versus placebo) was 99.1 mmHg. For the same substance, the “Composite endpoint of cardiovascular morbidity and mortality, difference versus placebo plus conventional therapy” value ([3]; losartan plus conventional therapy) was “no significant difference”, the “Patients with myocardial infarction” value ([3]; mean follow-up 3.4 years) was 50 patients and the “Patients with hospitalization for heart failure” value ([3]; time to first hospitalization, mean follow-up 3.4 years) was 89 patients. For the same substance, the “Risk reduction, hospitalization for heart failure” value ([3]; versus placebo, p=0.005) was 32%, the “Risk reduction, myocardial infarction” value ([3]; versus placebo, p=0.08, did not reach statistical significance) was 28% and the “Risk reduction, fatal or non-fatal cardiovascular event” value ([3]; versus placebo, p=0.26) was 9%. The “Rate of decline in renal function, median slope of reciprocal of serum creatinine concentration” value [4] was −0.056 dl/mg/yr, the “Discontinued for Any Reason” value ([5]; discontinuation from study therapy) was 341 (45.4) n (%) and the “Clinical adverse experience causing discontinuation: End Stage Renal Disease” value [5] was 16 (2.1) n (%). The “Clinical adverse experience causing discontinuation: Heart Failure” value [5] was 23 (3.0) n (%), the “Clinical adverse experience causing discontinuation: Myocardial Infarction” value [5] was 7 (0.9) n (%) and the “Clinical adverse experience causing discontinuation: Stroke” value [5] was 9 (1.2) n (%). The “Clinical adverse experience causing discontinuation: Worsening renal insufficiency” value [5] was 8 (1.1) n (%), the “Discontinuation from study therapy: Clinical Adverse Experience” value [5] was 128 (17.0) n (%) and the “Discontinuation from study therapy: Deaths” value [5] was 65 (8.7) n (%). The “Discontinuation from study therapy: Laboratory Adverse Experience” value [5] was 21 (2.8) n (%) and the “Laboratory adverse experience causing discontinuation: Hyperkalemia” value [5] was 9 (1.2) n (%).
